{"source": "patent US20230355599A1", "about": "“BIOMARKERS FOR CBL, AND COMPOSITIONS AND METHODS FOR THEIR USE” (NURIX THERAPEUTICS, INC., priority 2022, published 2023)", "key": {"A20 lymphoma tumor model": {"test_system": "A20 lymphoma tumor model", "test": "A20 lymphoma tumor model, anti-tumor activity", "format": "in vivo, mouse", "details": "dosed at 10, 30 or 60 mg/kg", "text": "An elevated percentage of pHS1+CD8+ T cells correlated with potent anti-tumor effects in mouse syngeneic tumor models and defined a biomarker therapeutic range. At this therapeutic range, approximately 50% proximal biomarker pHS1 correlates with the efficacious range."}, "pY319-Zap70": {"test_system": "pY319-Zap70", "test": "Phosphoprotein screen in human whole blood with CBL inhibitor at 10 uM: ZAP70", "format": "cell-based", "details": "1 hr 37° C., human whole blood 8 donors, anti-CD3/CD28 + crosslinker 60 minutes", "method": "(§1) To identify proximal biomarkers of CBL-B inhibition in immune cells, a panel of phosphorylated proteins were screened in human whole blood incubated with CBL-B inhibitor and concomitant anti-CD3 and anti-CD28 antibodies. The effect of CBL-B inhibition was assessed across multiple cellular signaling networks.\n(§2) Human heparinized whole blood from 8 donors was received after an overnight shipment at 4° C. The blood was plated, treated with CBL inhibitor at 10 uM and incubated at 37° C. for 60 minutes. After incubation, the cells were stimulated with anti-CD3/CD28 followed by a cross-linking antibody (30 μg of goat anti-mouse IgG (H+L) antibody (Invitrogen)). After 60 minutes, the cells were fixed, and stained using surface markers for T cells (CD3^+CD4^+& CD3^+CD8^+) and analyzed by flow cytometry for target phosphorylation of the following markers: pY180/pY511-ITK, pY397-HS1, pY759-PLCg2, pY783-PLCg1, pY525/pY526/pY348-SYK & pY319-Zap70.\n(§3) Fold change of each biomarker was calculated with the following example equation: […]\n(§4) Whole blood from eight human donors was collected in sodium heparin anti-coagulant treated with 10 μM of Compound 23 for 1 hr at 37° C. […] Fold change of % phosphorylation normalized to DMSO was quantitated in T cells (CD8^+) using flow cytometry is provided in FIGS. 6A-6B."}, "pY783-PLCg1": {"test_system": "pY783-PLCg1", "test": "Phosphoprotein screen in human whole blood with CBL inhibitor at 10 uM: PLCγ1", "format": "cell-based", "details": "1 hr 37° C., human whole blood 8 donors, anti-CD3/CD28 + crosslinker 60 minutes", "method": "as §1, §2, §3, §4"}, "pY759-PLCg2": {"test_system": "pY759-PLCg2", "test": "Phosphoprotein screen in human whole blood with CBL inhibitor at 10 uM: PLCγ2", "format": "cell-based", "details": "1 hr 37° C., human whole blood 8 donors, anti-CD3/CD28 + crosslinker 60 minutes", "method": "as §1, §2, §3, §4"}, "phosphorylated ZAP70": {"test_system": "phosphorylated ZAP70", "test": "Phosphorylated ZAP70 in cynomolgus macaque CD8+ T cells from whole blood in vitro (flow cytometry)", "format": "cell-based", "details": "Macaca fascicularis, T-cell, whole blood from six cynomolgus macaques, 2 hrs 37° C., 2 μg/mL anti-CD3 & anti-CD28 + crosslinker 60 minutes, read-out: Average mean EC50±standard deviation, phosphorylated ZAP70", "method": "To assess these candidate clinical proximal biomarkers of Cbl-b inhibition on T cells, pharmacodynamic analysis was performed. Whole blood was obtained from cynomolgus macaque donors, then incubated with increasing concentrations of Compound 23. The response to Cbl-b inhibition on phosphorylated HS1, ZAP70 and PLCγ2 was measured in CD8^+ T cells using flow cytometry. This technique is highly quantitative and can measure multiple phosphorylation markers in different cell populations within the same sample.\nDMSO (Dimethyl sulfoxide) was used to reconstitute Compound 23. Final concentration of DMSO was 0.05% in media for in vitro assays. […]\nStained cells were run on an Attune NxT Acoustic Focusing Flow Cytometer (Thermo Fisher, cat. No. A29004), and data was analyzed using FlowJo (v10.6.1) and GraphPad Prism (v8.00) software. Single lymphocytes were gated for CD8^+ cells (CD45^+/CD8^+) cells, and population frequencies were calculated for each population. The data is quantified by the percent positive. […] As protein becomes phosphorylated the fluorescence increases resulting in a larger fraction of the cells entering that gate. Each population was evaluated for % positive pY759-PLCγ2, pY397-HS1 levels, pY319/Syk (Y352)-ZAP70 levels."}}}
{"smiles": "C[C@H]1CCCN(Cc2cc3c(c(C(F)(F)F)c2)CN(c2cccc([C@]4(c5nncn5C)C[C@@H](C)C4)c2)C3=O)C1", "note": "[Compound 23]", "values": [{"measurement": "median survival time compared to the vehicle control", "setting": "A20 lymphoma tumor model", "value": "prolonged median survival time"}, {"measurement": "tumor size compared to the vehicle control", "setting": "A20 lymphoma tumor model", "value": "significantly smaller tumors"}, {"measurement": "increased phosphorylation of ZAP70 compared to DMSO control", "setting": "pY319-Zap70", "value": "2-3 fold"}, {"measurement": "increased phosphorylation of PLCγ1 compared to DMSO control", "setting": "pY783-PLCg1", "value": "2-3 fold"}, {"measurement": "increased phosphorylation of PLCγ2 compared to DMSO control", "setting": "pY759-PLCg2", "value": "3-4 fold"}, {"measurement": "EC50", "setting": "phosphorylated ZAP70", "value": "173 ± 177", "unit": "nM"}]}
